Test results from paper PMC3906007, “Discovery of a Small Molecule Agonist of Phosphatidylinositol 3-Kinase p110α That Reactivates Latent HIV-1” (PLoS ONE, 2014).
Read-outs that look alike come from different tables or passages of the source.

Assays:
[1] = tested on: PI3K p110β RNA; assay type: cell-based; conditions: J89GFP cells; 5 µM
[2] = tested on: PI3K p110α RNA; experiment: PI3K isoform RNA transcript levels in J89GFP cells, p110α; assay type: cell-based; conditions: 5 µM
[3] = biological target: T1, HDAC3 (Homo sapiens, UniProt O15379); experiment: Fluorogenic HDAC activity assay, HDAC3 complexed with NCOR2; assay type: biochemical
T1 construct: purchased BPS Bioscience (San Diego, CA)
Description: The lysine deacetylase activity of HDACs 1, 2, 3, and 8 was assessed using the Fluorogenic HDAC Assay (BPS Bioscience, San Diego, CA) according to the manufacturer's instructions. […] All assays were carried out under steady-state conditions and the assay read-out was optimized for linearity both as a function of time and enzyme concentration. The formation of the fluorescent product was measured using a SpectraMax M2 Plate Reader (Molecular Devices, CA). The excitation and emission wavelengths were 360 nm and 450 nm, respectively.

[4] = Cytotoxicity (MTT or CellTiter 96), HeLa; assay type: cell-based; conditions: human, HeLa cells; 24 hour incubation; mean ± SD, 3 replicates
Description: (§1) Following a 24 hour incubation period, cell viability was measured using either the MTT (Roche Applied Science, Indianapolis, IN) or CellTiter 96 proliferation (Promega, WI) assay.

[5] = tested on: latent HIV-1 in U1 cell line; experiment: Latent HIV-1 reactivation in U1 cells (quantitative PCR of early and late viral RNA transcripts); assay type: cell-based
Description: (§2) Three different cell lines of HIV-1 latency were used in this study. These included J89GFP, U1 and ACH-2 cells. The J89GFP cells were a kind gift from Dr. David Levy. The ACH-2 and U1 cells were obtained through the AIDS Research and Reference Reagent Program, Division of AIDS, NIAID, NIH: Dr. Thomas Folks contributor [19]–[21]. Reactivation of latent HIV-1 in the J89GFP cells was measured by quantifying the percentage of EGFP positive cells using a BD FACScan flow cytometer with BD FACSDiva software (BD Biosciences, CA), as described previously. Reactivation of latent HIV-1 in the ACH-2 and U 1 cells was assessed by quantitative analysis of initiated and elongated HIV-1 transcripts, as described previously. All 3 cell lines were maintained in RMPI 1640 medium supplemented with 10% FBS, 0.3 mg/mL L-glutamine, 100 U/mL penicillin, and 100 µg/mL streptomycin at 37°C in humidified air with 5% CO2.
Figure 2 Latent HIV-1 reactivation activity of 57704, alone and in combination with other inducing agents, in the U1 and ACH2 cell line models of virus latency. HIV-1 expression was assessed by quantitative PCR analysis of early and late viral RNA transcripts. Where appropriate, TNFα was used as an activation control. (A) Latent HIV-1 reactivation of activity 57704 in the J89GFP cell line. […] (B) Latent HIV-1 reactivation activity of 57704 in the ACH2 cell line. (C) Latent HIV-1 reactivation of activity 57704 in the U1 cell line. (D) Graph of activation of latent HIV-1 early and late gene transcript expression in the ACH2 and U1 cell lines. EC50 values were determined in Sigma Plot by nonlinear regression, as described previously. (E) Latent HIV-1 reactivation of 5 µM 57704 in combination with 1 µM prostratin in the U1 cell line. […]. (G) Latent HIV-1 reactivation of 5 µM 57704 in combination with 2.5 µM DSF in the U1 cell line. (H) Latent HIV-1 reactivation of 5 µM 57704 in combination with 20 µM BIX-01294 in the U1 cell line. Data represent the mean ± standard deviation from 3 replicate experiments.

[6] = tested on: latent HIV-1 in CD8+-depleted MNC; assay type: cell-based; conditions: for Copies HIV RNA/mL: 7 days
Text: Healthy HIV-1 uninfected blood donors and HIV-1-infected donors on suppressive cART with plasma HIV-1 RNA less than 50 copies/mL for >2 year provided written informed consent and underwent a large volume phlebotomy (100–200 mLs). The protocol for blood donation was approved by the Institutional Review Board of the University of Pittsburgh (IRB #PRO10070203).
CD8+T-cells were depleted from whole blood using RosetteSep Human CD8 Depletion Cocktail (StemCell Technologies, Vancouver, BC) according to manufacturer's instructions. 2×10^6 CD4^+ MNC cells were seeded in triplicate per treatment in 48-well plates and allowed to rest overnight. […] Activation controls were treated with CD3/CD28 Dynabeads (Life Technologies, Grand Island, NY). After 7 days of incubation, supernatants from triplicate wells were pooled, centrifuged (500 g×5 min), and stored at −80°C. HIV-1 RNA levels in supernatants were determined using the COBAS® AmpliPrep/COBAS® TaqMan® HIV-1 Test, v2.0 (Roche, Indianapolis, IN).

[7] = tested on: latent HIV-1 in J89GFP cells; experiment: Latent HIV-1 reactivation in J89GFP cells (EGFP positive cells, flow cytometry); assay type: cell-based
Description: as §2
To identify novel activators of latent HIV-1 expression, we screened 640 pure natural products from the TimTec Natural Compound Library at a concentration of 10 ng/mL for 24 hrs in a Jurkat cell (J89GFP) model of latency for their cytotoxicity and ability to reactivate HIV-1 expression. J89GFP cells contain a stably integrated, full-length HIV-1 provirus with an enhanced GFP (EGFP) reporter incorporated into the viral genome. The viral genome in these cells is transcriptionally silent. However, upon stimulation viral transcription is activated and viral expression can be measured by EGFP production. […].

[8] = Cytotoxicity (MTT or CellTiter 96), Jurkat; assay type: cell-based; conditions: human, Jurkat cells; 24 hour incubation; mean ± SD, 3 replicates
Description: as §1

[9] = tested on: purified T cells; experiment: Global T cell activation (surface expression of CD69, CD38 and HLA-DR); assay type: cell-based; conditions: different concentrations, up to 5 days
Description: Peripheral blood MNC were obtained from the blood of healthy donors by Ficoll-Paque PLUS (GE Healthcare, Piscataway, NJ) density gradient centrifugation. T cells were isolated using the Pan T Cell Isolation kit (Miltenyi Biotec, Auburn, CA) according to manufacturer's instruction. Briefly, non-T cells were depleted from the MNC using biotin-conjugated antibodies to CD14, CD15, CD16, CD19, CD34, CD36, CD56, CD123, and CD235a and anti-biotin-labeled magnetic beads. […] Cells were then washed twice with PBS, resuspended in PBS with 4% PFA and stored in the refrigerator until analysis. Samples were analyzed on a BD LSRII flow cytometer and analyzed using FACsDiva software (BD Biosciences, Mountain View, CA). Forward versus side scatter plot was used to define the live cell population and fluorescence gates were set based on isotype control fluorescence.

T1 sequence (O15379 whole entry): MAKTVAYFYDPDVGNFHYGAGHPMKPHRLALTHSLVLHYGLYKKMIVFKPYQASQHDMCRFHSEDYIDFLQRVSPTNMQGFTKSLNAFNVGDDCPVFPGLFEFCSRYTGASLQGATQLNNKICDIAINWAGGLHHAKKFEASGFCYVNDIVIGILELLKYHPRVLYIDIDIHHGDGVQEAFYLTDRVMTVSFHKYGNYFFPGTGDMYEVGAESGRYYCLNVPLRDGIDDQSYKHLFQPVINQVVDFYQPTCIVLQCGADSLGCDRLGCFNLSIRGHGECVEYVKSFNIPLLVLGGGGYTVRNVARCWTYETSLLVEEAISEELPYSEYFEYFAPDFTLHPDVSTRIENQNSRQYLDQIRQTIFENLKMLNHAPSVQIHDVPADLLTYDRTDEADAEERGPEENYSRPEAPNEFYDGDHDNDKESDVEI
T1 sequence (Q9Y618 395-489 partner limits assumed): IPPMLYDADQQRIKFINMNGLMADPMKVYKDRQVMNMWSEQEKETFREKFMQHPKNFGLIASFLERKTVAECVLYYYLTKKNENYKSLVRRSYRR

COc1cc2c(cc1OC)-c1c(OC)c(OC)cc3ccnc(c13)C2=O [Compound 57704, 1,2,9,10-tetramethoxy-7H-dibenzo[de,g]quinolin-7-one]
Decrease of PI3K p110β RNA levels [1]: ~2 fold | Effect on PI3K p110α RNA transcript levels [2]: no effect | IC50 [3]: > 50 µM | CC50 at 24 h [4]: 293 ± 56.4 µM | EC50 ([5]; Human immunodeficiency virus 1, read-out: EC50, activation of early HIV-1 gene transcript expression): 8.2 µM | EC50 ([5]; Human immunodeficiency virus 1, read-out: EC50, activation of late HIV-1 gene transcript expression): 4.9 µM | Latent HIV-1 reactivation activity in combination with prostratin ([5]; U1, 5 µM 57704 + 1 µM prostratin): increased in an additive manner | Latent HIV-1 reactivation activity in combination with DSF ([5]; U1, 5 µM 57704 + 2.5 µM DSF): increased in an additive manner | Latent HIV-1 reactivation activity in combination with SAHA ([5]; U1, 5 µM 57704 + 5 µM SAHA): increased in an additive manner | Latent HIV-1 reactivation activity in combination with BIX-01294 ([5]; U1, 5 µM 57704 + 20 µM BIX-01294): increased in an additive manner | Increase of HIV-1 RNA in culture supernatants compared to the control ([6]; 5 µM 57704, mean of 4 donors): ~4 fold | CD8+-depleted blood mononuclear cell preparations (donors) with increased HIV-1 expression ([6]; 4 donors on suppressive cART tested): 3 of 4 | Copies HIV RNA/mL ([6]; donor 1, 1 µM 57704, control 96): 0 copies/mL | Copies HIV RNA/mL ([6]; donor 1, 5 µM 57704, control 96): 389 copies/mL | Copies HIV RNA/mL ([6]; donor 2, 1 µM 57704, control 0): 79 copies/mL | Copies HIV RNA/mL ([6]; donor 2, 5 µM 57704, control 0): 35 copies/mL | Copies HIV RNA/mL ([6]; donor 3, 1 µM 57704, control 0): 10 copies/mL | Copies HIV RNA/mL ([6]; donor 3, 5 µM 57704, control 0): 0 copies/mL | Copies HIV RNA/mL ([6]; donor 4, 1 µM 57704, control 20): 20 copies/mL | EC50 ([7]; Human immunodeficiency virus 1, read-out: EC50, reactivation of latent HIV-1 gene expression): 10.3 ± 1.2 µM | Latent HIV-1 reactivation activity in presence of PI3K inhibitor wortmannin ([7]; J89GFP, 20 nM wortmannin): significantly attenuated | Latent HIV-1 reactivation activity in presence of p38 MAPK inhibitor SB203580 ([7]; J89GFP, 50 nM SB203580): unaffected | Latent HIV-1 reactivation activity in presence of Akt Inhibitor IV ([7]; J89GFP, 500 nM Akt Inhibitor IV): significantly attenuated | Latent HIV-1 reactivation activity in presence of PKC inhibitor Gö6983 ([7]; J89GFP, 500 nM Go6983): unaffected | Latent HIV-1 reactivation activity in presence of JNK inhibitor SP600125 ([7]; J89GFP, 1 µM SP00125): unaffected | Latent HIV-1 reactivation activity in presence of NFAT/calcineurin inhibitor cyclosporin A ([7]; J89GFP, 1 µM cyclosporin A): unaffected | Latent HIV-1 reactivation activity in presence of PI3K p110γ inhibitor AS-605240 ([7]; J89GFP, 2 µM AS-605240): moderately enhanced | Latent HIV-1 reactivation activity in presence of PI3K p110α specific inhibitor PI-103 ([7]; J89GFP, 2 µM PI-103): significantly attenuated | Latent HIV-1 reactivation activity in presence of PI3K p110β inhibitor TGX-221 ([7]; J89GFP, 2 µM TGX-221): moderately enhanced | Latent HIV-1 reactivation activity in presence of PI3K p110δ inhibitor IC87114 ([7]; J89GFP, 5 µM IC87114): not reduced | Latent HIV-1 reactivation activity in presence of pan PI3K inhibitor LY 294002 ([7]; J89GFP, 15 µM LY294002): significantly attenuated | Latent HIV-1 reactivation activity in presence of NF-κB inhibitor 6-amino-4-(4-phenoxyphenylethylamino) quinazoline ([7]; J89GFP, 20 µM NF-κB activation inhibitor): significantly attenuated | CC50 at 24 h [8]: 92.9 ± 7.5 µM | Surface expression of CD69, CD38 and HLA-DR [9]: did not up-regulate
